# Laboratory results taken from patent US10939901B2, “Customizable anchorage devices and methods of use” (TYRX, Inc., priority 2016, dated 2021).
# What was measured:
# [1] = Stability of rifampin and minocycline in PBS with and without tranexamic acid; type: physicochemical
# Experimental: To determine the stability of active pharmaceutical ingredients, such as, for example, one or more of active pharmaceutical ingredients 26 when combined with a hemostatic agent, such as, for example, one or more of hemostatic agents 24, mixtures of rifampin and minocycline were prepared in phosphate-buffered saline (PBS) with and without tranexamic acid (TXA). The mixtures were tested both at room temperature (RT) (about 23° C.) and at 37° C.
# blood clotting = assay: Time required to induce blood clotting in vitro; type: biochemical
# Experimental: Tests were conducted to compare the time required to induce blood clotting in vitro when different amounts of hemostatic agent is administered in the presence of TYRX (degradable mesh coated with P22-27.5 containing rifampin and minocycline), as shown in FIG. 23.
# Tests were conducted to compare the time required for different hemostatic agents to induce blood clotting in vitro versus the time required to induce blood clotting in vitro when no hemostatic agent is administered. In particular, the time required to induce blood clotting was plotted for blood alone, TYRX, Surgicel, TYRX with 1.6 mg of TXA, 1.2 mg of TXA alone and TYRX with 200 mg of TXA. In this example, TYRX refers to a Glycoprene mesh that is coated with P22-27.5 (a polymer in the P22-X family) containing Rifampin and Minocycline.
# myofibroblast formation = settings: Ajmal et al. (2003); cited from earlier work
# [2] = In vitro elution of rifampin and minocycline from p22-27.5 polymers with TXA in the release media; type: physicochemical; settings: PBS pH 7.4 without TXA, with TXA 0.05 mg/mL or 5 mg/mL, over 25 hours
# Text: To determine the elution of active pharmaceutical ingredients, such as, for example, one or more of active pharmaceutical ingredients 26 from a polymer, such as, for example, one of the polymers discussed herein, in vitro when the active pharmaceutical ingredients are combined with a hemostatic agent, such as, for example, one or more of hemostatic agents 24, in vitro elution of rifampin and minocycline from polymers in the p22-27.5 family containing different amounts of tranexamic acid was evaluated in a PBS buffer over 25 hours. B1=PBS pH 7.4; B2=PBS, pH 7.4+TXA (0.05 mg/mL); B3=PBS, pH 7.4+TXA (5 mg/mL).
structure (smiles),measurement,setting,value
NC[C@H]1CC[C@H](C(=O)O)CC1 [tranexamic acid],effect on the stability of rifampin and minocycline,[1]; RT and 37° C.,does not negatively affect the stability of rifampin and minocycline
same,Clotting time,blood clotting; higher amounts of TXA (1.6 mg TXA vs 200 mg of TXA) in the presence of TYRX,increased
same,time required to induce blood clotting,"blood clotting; in vitro, 1.2 mg of TXA alone",about 19 minutes
"O=S(=O)([O-])CCS.[Na+] [MESNA, sodium 2-mercaptoethane sulfonate]",myofibroblast formation,myofibroblast formation,diminish myofibroblast formation
CO[C@H]1/C=C/O[C@@]2(C)Oc3c(C)c(O)c4c(O)c(c(/C=N/N5CCN(C)CC5)c(O)c4c3C2=O)NC(=O)/C(C)=C\C=C\[C@H](C)[C@H](O)[C@@H](C)[C@@H](O)[C@@H](C)[C@H](OC(C)=O)[C@@H]1C [rifampin],"percentage area of rifampin, mixtures with versus without tranexamic acid","[1]; RT (about 23° C.) and 37° C., regardless of the temperature",substantially the same
same,elution rate from p22-27.5 polymer,[2],not affected by the presence of TXA
